Results taken from ChEMBL document CHEMBL4190267, “Discovery of potent molecular chimera (CM358) to treat human metastatic melanoma” (Eur J Med Chem, 2017).
Active and inactive are the calls of the source. No cut-off for these calls is given here.

Legend:
WM 266-4 [1] = assay: Growth inhibition of human WM266.4 cells preincubated for 6 hrs followed compound washout measured after 24 hrs by XTT assay; format: functional
A 172 = assay: Growth inhibition of human A172 cells preincubated for 6 hrs followed compound washout measured after 24 hrs by XTT assay; format: functional
NCI-H1299 = assay: Growth inhibition of human NCI-H1299 cells preincubated for 6 hrs followed compound washout measured after 24 hrs by XTT assay; format: functional
WM 266-4 [2] = assay: Growth inhibition of human WM266.4 cells at 5 uM incubated up to 72 hrs by XTT assay relative to control; format: functional; conditions: WM 266-4, 72 h, read-out: GI
WM 266-4 [3] = assay: Growth inhibition of human WM266.4 cells at 25 uM after 24 hrs by XTT assay; format: functional, cell-based
[4] = Drug metabolism in human WM266.4 cells assessed as chlorambucil after 48 hrs by LC-MS analysis; format: ADME, cell-based; conditions: wm 266-4, 48 h
[5] = Drug metabolism in human WM266.4 cells assessed as amonafide after 48 hrs by LC-MS analysis; format: ADME, cell-based; conditions: wm 266-4, 48 h
WM 266-4 [6] = assay: Induction of apoptosis in human WM266.4 cells assessed as late apoptotic cells at 10 uM after 2 hrs by Annexin V-FITC/propidium iodide staining based flow cytometry (reference value: 1.41%); format: functional
WM 266-4 [7] = assay: Induction of apoptosis in human WM266.4 cells assessed as necrotic cells at 10 uM after 2 hrs by Annexin V-FITC/propidium iodide staining based flow cytometry (reference value: 1.22%); format: functional
WM 266-4 [8] = assay: Induction of apoptosis in human WM266.4 cells assessed as live cells at 10 uM after 8 hrs by Annexin V-FITC/propidium iodide staining based flow cytometry (reference value: 94.7%); format: functional
WM 266-4 [9] = assay: Induction of apoptosis in human WM266.4 cells assessed as late apoptotic cells at 10 uM after 8 hrs by Annexin V-FITC/propidium iodide staining based flow cytometry (reference value: 1.41%); format: functional
WM 266-4 [10] = assay: Induction of apoptosis in human WM266.4 cells assessed as early apoptotic cells at 10 uM after 24 hrs by Annexin V-FITC/propidium iodide staining based flow cytometry (reference value: 2.64%); format: functional
WM 266-4 [11] = assay: Induction of apoptosis in human WM266.4 cells assessed as late apoptotic cells at 10 uM after 24 hrs by Annexin V-FITC/propidium iodide staining based flow cytometry (reference value: 1.41%); format: functional
WM 266-4 [12] = assay: Induction of apoptosis in human WM266.4 cells assessed as necrotic cells at 10 uM after 24 hrs by Annexin V-FITC/propidium iodide staining based flow cytometry (reference value: 1.22%); format: functional
WM 266-4 [13] = assay: Induction of apoptosis in human WM266.4 cells assessed as live cells at 25 uM after 2 hrs by Annexin V-FITC/propidium iodide staining based flow cytometry (reference value: 94.7%); format: functional
WM 266-4 [14] = assay: Induction of apoptosis in human WM266.4 cells assessed as necrotic cells at 25 uM after 2 hrs by Annexin V-FITC/propidium iodide staining based flow cytometry (reference value: 1.22%); format: functional
WM 266-4 [15] = assay: Induction of apoptosis in human WM266.4 cells assessed as early apoptotic cells at 25 uM after 8 hrs by Annexin V-FITC/propidium iodide staining based flow cytometry (reference value: 2.64%); format: functional
WM 266-4 [16] = assay: Induction of apoptosis in human WM266.4 cells assessed as late apoptotic cells at 25 uM after 8 hrs by Annexin V-FITC/propidium iodide staining based flow cytometry (reference value: 1.41%); format: functional
WM 266-4 [17] = assay: Induction of apoptosis in human WM266.4 cells assessed as necrotic cells at 25 uM after 8 hrs by Annexin V-FITC/propidium iodide staining based flow cytometry (reference value: 1.22%); format: functional
WM 266-4 [18] = assay: Induction of apoptosis in human WM266.4 cells assessed as live cells at 25 uM after 24 hrs by Annexin V-FITC/propidium iodide staining based flow cytometry (reference value: 94.7%); format: functional
WM 266-4 [19] = assay: Induction of necrosis in human WM266.4 cells at 25 uM after 2 to 6 hrs by Annexin V-FITC/propidium iodide staining based fluorescence microscopic method; format: functional, cell-based
WM 266-4 [20] = assay: Induction of necrosis in human WM266.4 cells at 5 to 25 uM after 16 hrs by Annexin V-FITC/propidium iodide staining based fluorescence microscopic method; format: functional, cell-based
WM 266-4 [21] = assay: Cell cycle arrest in human WM266.4 cells assessed as accumulation at S phase at 10 uM after 2 hrs by propidium iodide staining based flow cytometry (reference value: 27%); format: functional
WM 266-4 [22] = assay: Cell cycle arrest in human WM266.4 cells assessed as accumulation at G2 phase at 10 uM after 2 hrs by propidium iodide staining based flow cytometry (reference value: 11%); format: functional
WM 266-4 [23] = assay: Cell cycle arrest in human WM266.4 cells assessed as accumulation at G1 phase at 10 uM after 8 hrs by propidium iodide staining based flow cytometry (reference value: 59%); format: functional
WM 266-4 [24] = assay: Cell cycle arrest in human WM266.4 cells assessed as accumulation at S phase at 10 uM after 8 hrs by propidium iodide staining based flow cytometry (reference value: 27%); format: functional
WM 266-4 [25] = assay: Cell cycle arrest in human WM266.4 cells assessed as accumulation at G1 phase at 10 uM after 24 hrs by propidium iodide staining based flow cytometry (reference value: 59%); format: functional
WM 266-4 [26] = assay: Cell cycle arrest in human WM266.4 cells assessed as accumulation at S phase at 10 uM after 24 hrs by propidium iodide staining based flow cytometry (reference value: 27%); format: functional
WM 266-4 [27] = assay: Cell cycle arrest in human WM266.4 cells assessed as accumulation at G2 phase at 10 uM after 24 hrs by propidium iodide staining based flow cytometry (reference value: 11%); format: functional
[28] = biological target: DNA topoisomerase 2-alpha (Homo sapiens) (UniProt P11388); assay: Inhibition of human topoisomerase-2alpha assessed as reduction in enzyme-mediated decatenation at 25 uM using kinetoplast DNA as substrate after 25 mins by ethidium bromide staining based agarose gel electrophoresis method
Sequence of DNA topoisomerase 2-alpha (Homo sapiens) (P11388 whole entry): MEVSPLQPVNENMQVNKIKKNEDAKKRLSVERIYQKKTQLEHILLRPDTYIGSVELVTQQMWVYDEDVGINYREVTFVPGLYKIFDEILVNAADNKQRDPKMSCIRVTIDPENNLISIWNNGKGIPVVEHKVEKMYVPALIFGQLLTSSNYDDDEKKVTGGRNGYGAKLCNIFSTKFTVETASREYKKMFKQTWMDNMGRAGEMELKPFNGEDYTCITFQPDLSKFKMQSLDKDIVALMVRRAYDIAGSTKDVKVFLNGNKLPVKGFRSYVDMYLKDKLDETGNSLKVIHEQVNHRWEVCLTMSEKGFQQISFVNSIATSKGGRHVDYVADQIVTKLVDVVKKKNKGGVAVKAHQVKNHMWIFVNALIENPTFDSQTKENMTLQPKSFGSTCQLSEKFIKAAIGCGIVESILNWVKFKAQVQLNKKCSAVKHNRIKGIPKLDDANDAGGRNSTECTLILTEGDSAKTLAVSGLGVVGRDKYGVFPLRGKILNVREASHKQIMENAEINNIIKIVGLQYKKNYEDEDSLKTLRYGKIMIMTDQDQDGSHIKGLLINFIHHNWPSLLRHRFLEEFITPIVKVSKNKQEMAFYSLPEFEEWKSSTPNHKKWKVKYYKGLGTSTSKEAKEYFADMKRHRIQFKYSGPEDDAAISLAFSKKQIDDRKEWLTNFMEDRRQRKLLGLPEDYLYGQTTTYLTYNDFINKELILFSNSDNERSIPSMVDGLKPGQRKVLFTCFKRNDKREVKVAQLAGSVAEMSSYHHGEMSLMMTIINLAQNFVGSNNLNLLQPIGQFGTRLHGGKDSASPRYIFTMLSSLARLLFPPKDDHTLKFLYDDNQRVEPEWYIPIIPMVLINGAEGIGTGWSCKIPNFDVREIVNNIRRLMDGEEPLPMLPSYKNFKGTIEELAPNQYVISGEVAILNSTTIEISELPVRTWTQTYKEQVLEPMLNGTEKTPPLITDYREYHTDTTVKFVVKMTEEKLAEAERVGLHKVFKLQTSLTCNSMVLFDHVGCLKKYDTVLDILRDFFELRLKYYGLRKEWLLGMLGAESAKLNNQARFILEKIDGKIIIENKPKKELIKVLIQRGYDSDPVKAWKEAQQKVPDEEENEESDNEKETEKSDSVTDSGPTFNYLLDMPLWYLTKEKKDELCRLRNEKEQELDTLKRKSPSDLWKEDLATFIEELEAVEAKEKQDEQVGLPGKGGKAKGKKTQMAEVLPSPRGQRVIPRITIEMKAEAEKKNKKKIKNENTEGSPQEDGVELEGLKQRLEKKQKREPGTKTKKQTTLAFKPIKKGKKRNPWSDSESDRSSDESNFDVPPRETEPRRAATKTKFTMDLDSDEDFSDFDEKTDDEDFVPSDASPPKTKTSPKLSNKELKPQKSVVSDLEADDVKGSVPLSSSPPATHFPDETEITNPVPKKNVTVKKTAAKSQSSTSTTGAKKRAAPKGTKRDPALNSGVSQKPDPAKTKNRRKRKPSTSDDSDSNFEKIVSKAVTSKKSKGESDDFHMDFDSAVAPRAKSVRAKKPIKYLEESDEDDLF

Mus musculus [29] = assay: Toxicity in athymic Foxn1 nu mouse assessed as effect on body weight at 10 mg/kg, ip administered once daily for 3 days followed by resting period of 4 days repeated for 4 weeks; format: organism-based; conditions: in vivo
Mus musculus [30] = assay: Toxicity in athymic Foxn1 nu mouse assessed as abnormal gross behavioral changes at 10 mg/kg, ip administered once daily for 3 days followed by resting period of 4 days repeated for 4 weeks; format: organism-based; conditions: in vivo
Mus musculus [31] = assay: Toxicity in athymic Foxn1 nu mouse assessed as abnormal physiological changes at 10 mg/kg, ip administered once daily for 3 days followed by resting period of 4 days repeated for 4 weeks; format: organism-based; conditions: in vivo
WM 266-4 [32] = assay: Antitumor activity against human WM266.4 cells xenografted in athymic Foxn1 nu mouse assessed as tumor growth inhibition at 5 mg/kg, ip administered once daily for 7 days followed by resting period of 2 days repeated for 4 weeks starting from 5 days post tumor inoculation measured on day 21; format: functional, organism-based
WM 266-4 [33] = assay: (§1) Antitumor activity against human WM266.4 cells xenografted in athymic Foxn1 nu mouse assessed as tumor growth inhibition at 10 mg/kg, ip administered once daily for 7 days followed by resting period of 2 days repeated for 4 weeks starting from 5 days post tumor inoculation measured on day 19; format: functional, organism-based
WM 266-4 [34] = assay: as §1, with “increase in 50% survival of mouse” for “tumor growth inhibition”, “relative to control” for “measured on day 19”; format: functional

CN(C)CCN1C(=O)c2cccc3cc(NC(=O)CCCc4ccc(N(CCCl)CCCl)cc4)cc(c23)C1=O.O=C(O)C(F)(F)F
GI50 (WM 266-4 [1]): 8.8 µM
GI50 (A 172): 7.5 µM
GI50 (NCI-H1299): 6.8 µM
inhibition of growth at 5 µM (WM 266-4 [2]): 100%
growth inhibition (GI) (WM 266-4 [3]): Active
Drug metabolism [4]: Metabolite_Notdetected
Drug metabolism [5]: Metabolite_Notdetected
Activity (WM 266-4 [6]): 1.46%
Activity (WM 266-4 [7]): 6.58%
Activity (WM 266-4 [8]): 82.4%
Activity (WM 266-4 [9]): 1.59%
Activity (WM 266-4 [10]): 3.9%
Activity (WM 266-4 [11]): 1.29%
Activity (WM 266-4 [12]): 10.3%
Activity (WM 266-4 [13]): 72.9%
Activity (WM 266-4 [14]): 16.4%
Activity (WM 266-4 [15]): 5.46%
Activity (WM 266-4 [16]): 5.47%
Activity (WM 266-4 [17]): 27.9%
Activity (WM 266-4 [18]): 40%
Activity (WM 266-4 [19]): Active
Activity (WM 266-4 [20]): Active
Activity (WM 266-4 [21]): 45%
Activity (WM 266-4 [22]): 15%
Activity (WM 266-4 [23]): 35%
Activity (WM 266-4 [24]): 46%
Activity (WM 266-4 [25]): 36%
Activity (WM 266-4 [26]): 38%
Activity (WM 266-4 [27]): 24%
inhibition [28]: Active
Activity (Mus musculus [29]): Non-Toxic
Activity (Mus musculus [30]): Non-Toxic
Activity (Mus musculus [31]): Non-Toxic
TGI (WM 266-4 [32]): inactive
TGI (WM 266-4 [33]): Active
Activity (WM 266-4 [34]): 24%
